The source of these data is patent US7067491B2, “Heterocyclic compounds having elastase-inhibiting activity and intermediates thereof” (Dainippon Pharmaceutical Co., Ltd., priority 2002, dated 2006).

A word on the IC50: it is the concentration at which inhibition is half-maximal. A low value points to greater potency in that assay. Usually ED50 stands for the dose that gives a 50% effect, or the effect in half of the subjects. A lower ED50 goes with an effect at a small dose.

In data set [1] the target is T1, human neutrophil elastase (Homo sapiens, UniProt P08246).
T1 construct: purchased Elastine Product Co., Inc
T1 sequence (P08246 30-267): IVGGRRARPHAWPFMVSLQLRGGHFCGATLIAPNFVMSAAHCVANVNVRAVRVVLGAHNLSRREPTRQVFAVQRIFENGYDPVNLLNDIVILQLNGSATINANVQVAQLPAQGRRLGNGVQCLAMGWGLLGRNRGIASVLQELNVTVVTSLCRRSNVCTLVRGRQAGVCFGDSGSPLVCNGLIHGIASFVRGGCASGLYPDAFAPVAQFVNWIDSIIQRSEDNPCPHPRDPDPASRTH
In words: Inhibitory activity on human neutrophil elastase (HNE) in vitro. The format is biochemical. The note with it: human neutrophil elastase 0.2 U/ml, substrate MeO-Suc-Ala-Ala-Pro-Val-pNA 0.5 mM, 37° C., pH 7.5. As for the experimental part: Experiment 1: Inhibitory Activity on Human Neutrophil Elastase (HNE)
The inhibitory activity of the compound of the present invention in vitro on human neutrophil elastase was examined by this experiment.
To 100 mM of HEPES {[N-(2-hydroxyethyl)piperazine-N′-(2-ethanesulfonic acid)], pH 7.5}buffer solution containing 1M NaCl and 0.001% Brij-35 (polyoxyethylene lauryl ether) were added human neutrophil elastase (final concentration: 0.2 U/ml, Elastine Product Co., Inc.) and the compound of the present invention (dissolved in 10% dimethyl sulfoxide; final concentration: 10^−10˜3×10^−3 M). The mixture was pre-incubated for 3 minutes at 37° C. Thereto was added MeO-Suc-Ala-Ala-Pro-Val-pNA (methoxysuccinyl-alanyl-alanyl-prolyl-valyl-p-nitroanilide (Sigma Chemical Co.)) as a substrate to give the final concentration of 0.5 mM, and the reaction was initiated. Under this condition, the producing rate of the reaction product, p-nitroanilide (pNA) at 37° C. was estimated by measuring the absorbance at 404 nm for 3 minutes.
The inhibitory activity of the compound of the present invention against human neutrophil elastase (HNE) is calculated according to the following formula.
The concentration of the compound of the present invention to be required to achieve 50% HNE inhibition (i.e., IC50) was calculated based on the concentration-inhibitory rate curve of the compound of the present invention.
As a comparative compound, N-[(1S)-2-((2S)-2-{N-[(1S)-3,3,3-trifluoro-1-(methylethyl)-2-oxopropyl]carbamoyl}pyrrolidinyl)-1-(methylethyl)-2-oxoethyl](imidazol-4-yl)carboxamide was used, and the same assay was carried out. The planar structure of this compound was the same as one of compound (22) disclosed in J. Med. Chem., 1997, 40, 1876–1885.

Data set [2] has as its system pulmonary hemorrhage induced by human neutrophil elastase (HNE). In words: Inhibitory activity on pulmonary hemorrhage induced by human neutrophil elastase (HNE). The format is in vivo. As to conditions: hamster; for Pulmonary hemorrhage inhibitory rate (%): dose 3 mg/kg orally, 30 minutes prior to HNE; for ED50: Homo sapiens, Neutrophil, po. From the text:
Experiment 3: Inhibitory Activity on Pulmonary Hemorrhage Induced by Human Neutrophil Elastase (HNE)
This experiment tested on in vivo efficacy of the compound of the present invention. When human neutrophil elastase is intratracheally administered to a hamster, the pulmonary hemorrhage is induced. A definite time later after administration of the elastase, in the bronchoalveolar lavage fluid by washing lung via trachea, hemoglobin is detected.
Hamsters (Syrian strain, 7–10 weeks old male) were divided into groups consisting of 3 to 6, and each group was treated as follows:
(A) A Group to which the Compound of the Present Invention was not Administered (Disease Control):
Physiological saline solution (0.2 ml) in which 25 unit of human neutrophil elastase (Elastin Product Co., Inc.) was dissolved was intratracheally administered to a hamster to induce the pulmonary hemorrhage. One hour later after administration of elastase, the hamsters were sacrificed by exsanquination, and alveoli were transtracheally washed twice with physiological saline (2.5 ml), and the hemoglobin concentration in the bronchoalveolar lavage fluid (5 ml) was determined by measuring the absorbance at 414 nm.
(B) A Group to which the Compound of the Present Invention was Administered:
A fixed amount of the compound of the present invention was dissolved in dimethyl sulfoxide (DMSO), and thereto was added 0.5% tragacanth gum to prepare a suspension. The suspension was orally administered to a hamster, 30 minutes prior to the administration of human neutrophil elastase (HNE) (final concentration of DMSO, 1%), and then, human neutrophil elastase was administered in the same manner as the above method (A). After 1 hour, the concentration of hemoglobin in the bronchoalveolar lavage fluid was determined in the same manner as the above method (A).
The hemorrhage inhibition activity of the compound of the present invention is represented as the hemorrhage inhibiting rate in the following formula.
The dose of the compound of the present invention to be required to achieve 50% inhibition of pulmonary hemorrhage (i.e., ED50) was calculated based on the administration dose-hemorrhage inhibiting rate curve.
As a comparative example, the same experiment was also carried out on a comparative compound used in Experiment 1.
Some of the compounds of the present invention were compared with the comparative compound on the hemorrhage inhibitory rate at the dose of 3 mg/kg.

For the next data set, the system named is ICR mice. In words: Acute toxicity. The format is in vivo. As to conditions: male ICR mice (5 mice), 300 mg/kg orally, after 24 hours. How it is done: Experiment 5: Acute Toxicity
The compound of the present invention (each compound of Example 10, Example 11, Example 15, Example 25, and Example 40) was suspended in 0.5% tragacanth gum and the suspension was orally administered to 7 weeks old, male ICR mice (5 mice) at 300 mg/kg.

Setting [3] is: orally administered 30 minutes prior to intratracheal HNE, hemoglobin in bronchoalveolar lavage fluid after 1 hour.

With `Cc1c(C(=O)N[C@H](C(=O)N2CCC[C@H]2C(=O)N[C@H](C(=O)C(F)(F)F)C(C)C)C(C)C)cnn1-c1ccc(Cl)cc1` [Example 38, N-[(1S)-2-((2S)-2-{N-[(1S)-3,3,3-trifluoro-1-(methylethyl)-2-oxopropyl]carbamoyl}pyrrolidinyl)-1-(methylethyl)-2-oxoethyl]-[1-(4-chlorophenyl)-5-methylpyrazol-4-yl]carboxamide], the IC50 in data set [1] was determined as 8.3 nM. Further, the “Pulmonary hemorrhage inhibitory rate (%)” value in data set [2] is reported as 63%.
In data set [1], `Cc1cc(C(=O)N[C@H](C(=O)N2CCC[C@H]2C(=O)N[C@H](C(=O)C(F)(F)F)C(C)C)C(C)C)no1` [Example 15, N-[(1S)-2-((2S)-2-{N-[(1S)-3,3,3-trifluoro-1-(methylethyl)-2-oxopropyl]carbamoyl}pyrrolidinyl)-1-(methylethyl)-2-oxoethyl]-(5-methylisoxazol-3-yl)carboxamide] showed an IC50 of 24 nM. For the same compound, in data set [2] (setting [3]), the ED50 came to 0.62 mg/kg. The “Acute toxicity: death or not” value in the data set on ICR mice was “all were alive”.
In the same order, the values of `COc1cc(C(=O)N[C@H](C(=O)N2CCC[C@H]2C(=O)N[C@H](C(=O)C(F)(F)F)C(C)C)C(C)C)on1` [Example 11, N-[(1S)-2-((2S)-2-{N-[(1S)-3,3,3-trifluoro-1-(methylethyl)-2-oxopropyl]carbamoyl}pyrrolidinyl)-1-(methylethyl)-2-oxoethyl]-(3-methoxyisoxazol-5-yl)carboxamide] are 27 nM, 1.5 mg/kg and “all were alive”.
For `CC(C)[C@H](NC(=O)c1cc(C(C)(C)C)n(C)n1)C(=O)N1CCC[C@H]1C(=O)N[C@H](C(=O)C(F)(F)F)C(C)C` [Example 25, N-[(1S)-2-((2S)-2-{N-[(1S)-3,3,3-trifluoro-1-(methylethyl)-2-oxopropyl]carbamoyl}pyrrolidinyl)-1-(methylethyl)-2-oxoethyl]-(5-tert-butyl-1-methylpyrazol-3-yl)carboxamide], the “Acute toxicity: death or not” value in the data set with ICR mice is recorded as “all were alive”.
Take `CCc1noc(C)c1C(=O)N[C@H](C(=O)N1CCC[C@H]1C(=O)N[C@H](C(=O)C(F)(F)F)C(C)C)C(C)C` [Example 4, N-[(1S)-2-((2S)-2-{N-[(1S)-3,3,3-trifluoro-1-(methylethyl)-2-oxopropyl]carbamoyl}pyrrolidinyl)-1-(methylethyl)-2-oxoethyl]-(3-ethyl-5-methylisoxazol-4-yl)carboxamide]: half-maximal inhibition in data set [1] (IC50) was put at 17 nM. Also, in data set [2] (setting [3]), the ED50 worked out at 2.5 mg/kg.
Turning to `Cc1c(C(=O)N[C@H](C(=O)N2CCC[C@H]2C(=O)N[C@H](C(=O)C(F)(F)F)C(C)C)C(C)C)cnn1-c1ccc(C(F)(F)F)cc1` [Example 47, N-[(1S)-2-((2S)-2-{N-[(1S)-3,3,3-trifluoro-1-(methylethyl)-2-oxopropyl]carbamoyl}pyrrolidinyl)-1-(methylethyl)-2-oxoethyl]-{5-methyl-1-[4-(trifluoromethyl)phenyl]pyrazol-4-yl}carboxamide], in data set [1], half-maximal inhibition (IC50) was put at 15 nM. For the same compound, the “Pulmonary hemorrhage inhibitory rate (%)” value in data set [2] is on record as 60%.
The compound `COc1ccc(-n2ncc(C(=O)N[C@H](C(=O)N3CCC[C@H]3C(=O)N[C@H](C(=O)C(F)(F)F)C(C)C)C(C)C)c2C)cc1` [Example 40, N-[(1S)-2-((2S)-2-{N-[(1S)-3,3,3-trifluoro-1-(methylethyl)-2-oxopropyl]carbamoyl}pyrrolidinyl)-1-(methylethyl)-2-oxoethyl]-[5-methyl-1-(4-methoxyphenyl)pyrazol-4-yl]carboxamide] had an IC50 in data set [1] of 8.4 nM. Besides, in data set [2], the “Pulmonary hemorrhage inhibitory rate (%)” value was 70%. In addition, the “Acute toxicity: death or not” value with ICR mice is recorded as “all were alive”.
Turning to `Cc1c(C(=O)N[C@H](C(=O)N2CCC[C@H]2C(=O)N[C@H](C(=O)C(F)(F)F)C(C)C)C(C)C)cnn1-c1ccccc1` [Example 10, N-[(1S)-2-((2S)-2-{N-[(1S)-3,3,3-trifluoro-1-(methylethyl)-2-oxopropyl]carbamoyl}pyrrolidinyl)-1-(methylethyl)-2-oxoethyl]-(5-methyl-1-phenylpyrazol-4-yl)carboxamide], half-maximal inhibition in data set [1] (IC50) was put at 10 nM. This compound also showed a 50% effective dose (ED50) in data set [2] (setting [3]) of 1.1 mg/kg. Moreover, the “Acute toxicity: death or not” value in the data set with ICR mice was “all were alive”.
For `Cc1cc2onc(C(=O)N[C@H](C(=O)N3CCC[C@H]3C(=O)N[C@H](C(=O)C(F)(F)F)C(C)C)C(C)C)c2cc1C` [Example 17, N-[(1S)-2-((2S)-2-{N-[(1S)-3,3,3-trifluoro-1-(methylethyl)-2-oxopropyl]carbamoyl}pyrrolidinyl)-1-(methylethyl)-2-oxoethyl]-(5,6-dimethylbenzo[d]isoxazol-3-yl)carboxamide], in data set [1], the concentration for half-maximal inhibition (IC50) worked out at 11 nM. The “Pulmonary hemorrhage inhibitory rate (%)” value in data set [2] is 59%.
For the compound `CC(C)[C@H](NC(=O)c1c[nH]cn1)C(=O)N1CCC[C@H]1C(=O)N[C@H](C(=O)C(F)(F)F)C(C)C` [Comparative compound, N-[(1S)-2-((2S)-2-{N-[(1S)-3,3,3-trifluoro-1-(methylethyl)-2-oxopropyl]carbamoyl}pyrrolidinyl)-1-(methylethyl)-2-oxoethyl](imidazol-4-yl)carboxamide, reference compound], the IC50 in data set [1] stood at 78 nM. Moreover, the “Pulmonary hemorrhage inhibitory rate (%)” value in data set [2] is 18%. Also, in data set [2] (setting [3]), the “Inhibitory activity on pulmonary hemorrhage ED50” value is given as over 10 mg/kg.
In turn, `Cc1c(C(=O)N[C@H](C(=O)N2CCC[C@H]2C(=O)N[C@H](C(=O)C(F)(F)F)C(C)C)C(C)C)cnn1-c1ccccc1F` [Example 45] registered a half-maximal inhibitory concentration (IC50) in data set [1] of 8.4 nM. In addition, the “Pulmonary hemorrhage inhibitory rate (%)” value in data set [2] turned out to be 58%.
For the compound `CC(C)Oc1cc(C(=O)N[C@H](C(=O)N2CCC[C@H]2C(=O)N[C@H](C(=O)C(F)(F)F)C(C)C)C(C)C)on1` [Example 12, N-[(1S)-2-((2S)-2-{N-[(1S)-3,3,3-trifluoro-1-(methylethyl)-2-oxopropyl]carbamoyl}pyrrolidinyl)-1-(methylethyl)-2-oxoethyl]-[3-(methylethoxy)isoxazol-5-yl]carboxamide], the 50% inhibitory concentration (IC50) in data set [1] worked out at 16 nM. In data set [2], the “Pulmonary hemorrhage inhibitory rate (%)” value amounted to 66%.
